Data published in patent publication US10752647B2, “N-phosphonoxymethyl prodrugs of hydroxyalkyl thiadiazole derivatives” (DAIICHI SANKYO COMPANY, LIMITED, priority 2017, dated 2020).
≈ marks a conversion by molar mass, not a printed value. Like-named read-outs stand apart in the source and are kept apart here.

What was measured:
[1] = Solubility of parent compounds and prodrugs in phosphate buffer; type: physicochemical; conditions: aqueous buffer, thermodynamic from solid, 25° C., more than 4 weeks, pH 7.0
Procedure: Parent compounds: About 5 mg of parent compounds (biologically active forms of prodrugs) were added to 950 μL of phosphate buffer, and mixed vigorously for 1 hour at 25° C. Then, these samples were stored at 25° C. for more than 4 weeks and filtered to remove undissolved parent compounds. Next, these solutions were diluted with 50% aqueous acetonitrile solution. The resulting test solutions were assayed by HPLC. Prodrugs: About 30 mg of prodrugs were added to 120 μL of phosphate buffer, and mixed vigorously for 1 hour at 25° C. After shaking, pH of these solutions were adjusted at pH 7.0 by 1 mol/L NaOH solution. Then, the total volume were adjusted to 280 μL with purified water. Next, these solutions were stored at 25° C. for more than 4 weeks and filtered to remove undissolved compounds. These solutions were diluted with 50% aqueous acetonitrile solution. The resulting test solutions were assayed by HPLC.

[2] = Solubility in Japanese Pharmacopeia First Fluid (JP1) and Second Fluid (JP2); type: physicochemical; conditions: thermodynamic from solid, room temperature
Procedure: Method of Testing Solubility in Water and Neutral Buffer A 10 mmol/L solution of the test compound was prepared in DMSO and dispensed 100 μL of 10 mmol/L DMSO stock solutions into labeled glass tubes in duplicate, one for Japanese Pharmacopeia First Fluid (JP1) and second for Japanese Pharmacopeia Second Fluid (JP2). After evaporation of DMSO from each tube, 500 μL of JP1 and JP2 fluid were added in each tube, respectively. These tubes were sonicated for 1 minute and placed on shaker for 30 minutes with an interval of 30 seconds at every 5 minute. Tubes were placed in dark at room temperature for 1 hour and solution was filtered through membrane filter. The filtrate was diluted 2-fold and 10-fold. The resulting test solutions was analyzed and quantified against the standards using UPLC (standard preparation-10 mmol/L solution in DMSO is serially diluted with 50% aqueous acetonitrile solution to prepare 2 solutions; 100 μmol/L standard solution and 5 μmol/L standard solutions).

[3] = parent compound, phosphate buffer
[4] = prodrug, phosphate buffer adjusted with NaOH
[5] = pH 1.2, simulated gastric fluid, Japanese Pharmacopeia First Fluid (JP1), read-out: Solubility JP1
[6] = pH 6.8, aqueous buffer, Japanese Pharmacopeia Second Fluid (JP2), read-out: Solubility JP2

SMILES	solubility [1, 3]	solubility [1, 4]	solubility at 30 min [2, 5]	solubility at 30 min [2, 6]
CCc1[nH]c(C(=O)N[C@@H]2CCN(c3nnc([C@@H](O)CO)s3)C[C@@H]2OC)nc1Cl [Compound B, 4-chloro-N-[(3S,4R)-1-{5-[(1S)-1,2-dihydroxyethyl]-1,3,4-thiadiazol-2-yl}-3-methoxypiperidin-4-yl]-5-ethyl-1H-imidazole-2-carboxamide]	0.38 mg/mL (≈ 882 µM)	–	–	–
CCc1c(Cl)nc(C(=O)N[C@@H]2CCN(c3nnc([C@H](C)O)s3)C[C@@H]2OC)n1COP(=O)(O)O [Compound No. 5, (4-Chloro-5-ethyl-2-{[(3S,4R)-1-{5-[(1S)-1-hydroxyethyl]-1,3,4-thiadiazol-2-yl}-3-methoxypiperidin-4-yl]carbamoyl}-1H-imidazol-1-yl)methyl dihydrogen phosphate]	–	101 mg/mL	–	–
CCc1c(Cl)nc(C(=O)N[C@@H]2CCN(c3nnc([C@H](O)CO)s3)C[C@@H]2OC)n1COP(=O)(O)O [Compound No. 7, (4-Chloro-2-{[(3S,4R)-1-{5-[(1R)-1,2-dihydroxyethyl]-1,3,4-thiadiazol-2-yl}-3-methoxypiperidin-4-yl]carbamoyl}-5-ethyl-1H-imidazol-1-yl)methyl dihydrogen phosphate]	–	107 mg/mL	–	–
CCc1nc(C(=O)N[C@@H]2CCN(c3nnc([C@@H](O)CO)s3)C[C@@H]2OC)n(COP(=O)(O)O)c1Cl [Compound No. 10, (5-Chloro-2-{[(3S,4R)-1-{5-[(1S)-1,2-dihydroxyethyl]-1,3,4-thiadiazol-2-yl}-3-methoxypiperidin-4-yl]carbamoyl}-4-ethyl-1H-imidazol-1-yl)methyl dihydrogen phosphate]	–	105 mg/mL	–	–
CCc1nc(C(=O)N[C@@H]2CCN(c3nnc([C@H](O)CO)s3)C[C@@H]2OC)n(COP(=O)(O)O)c1Cl [Compound No. 8, (5-Chloro-2-{[(3S,4R)-1-{5-[(1R)-1,2-dihydroxyethyl]-1,3,4-thiadiazol-2-yl}-3-methoxypiperidin-4-yl]carbamoyl}-4-ethyl-1H-imidazol-1-yl)methyl dihydrogen phosphate]	–	102 mg/mL	–	–
CCc1c(Cl)nc(C(=O)N[C@@H]2CCN(c3nnc([C@](C)(O)CO)s3)C[C@@H]2OC)n1COP(=O)(O)O [Compound No. 3, (4-Chloro-2-{[(3S,4R)-1-{5-[(2R)-1,2-dihydroxypropan-2-yl]-1,3,4-thiadiazol-2-yl}-3-methoxypiperidin-4-yl]carbamoyl}-5-ethyl-1H-imidazol-1-yl)methyl dihydrogen phosphate]	–	107 mg/mL	> 1.35 mg/mL	> 1.32 mg/mL
CCc1nc(C(=O)N[C@@H]2CCN(c3nnc([C@H](C)O)s3)C[C@@H]2OC)n(COP(=O)(O)O)c1Cl [Compound No. 6, (5-Chloro-4-ethyl-2-{[(3S,4R)-1-{5-[(1S)-1-hydroxyethyl]-1,3,4-thiadiazol-2-yl}-3-methoxypiperidin-4-yl]carbamoyl}-1H-imidazol-1-yl)methyl dihydrogen phosphate]	–	104 mg/mL	–	–
CCc1[nH]c(C(=O)N[C@@H]2CCN(c3nnc([C@](C)(O)CO)s3)C[C@@H]2OC)nc1Cl [Compound A, 4-chloro-N-[(3S,4R)-1-{5-[(2R)-1,2-dihydroxypropan-2-yl]-1,3,4-thiadiazol-2-yl}-3-methoxypiperidin-4-yl]-5-ethyl-1H-imidazole-2-carboxamide]	0.775 mg/mL (≈ 1740 µM)	–	–	–
CCc1nc(C(=O)N[C@@H]2CCN(c3nnc([C@](C)(O)CO)s3)C[C@@H]2OC)n(COP(=O)(O)O)c1Cl [Compound No. 4, (5-Chloro-2-{[(3S,4R)-1-{5-[(2R)-1,2-dihydroxypropan-2-yl]-1,3,4-thiadiazol-2-yl}-3-methoxypiperidin-4-yl]carbamoyl}-4-ethyl-1H-imidazol-1-yl)methyl dihydrogen phosphate]	–	102 mg/mL	> 1.28 mg/mL	> 1.51 mg/mL
